PubChem BioAssay (NCI)
“And” between values parts separate entries of the source, which are not always exact repeats. Equal values may be shown once.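 Compound exposure: 48 hours, 5 concentrations, 96-well plates. The concentration for 50% growth inhibition is given as GI50. TGI marks complete inhibition of growth.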

Columns and labels:
Assay in all cases: NCI tumour cell line growth inhibition, 48 h; in the data active = GI50 below about 0.43 µM; inactive = the rest
786-0 renal = tested on: 786-0 renal
A498 renal = tested on: A498 renal
A549 NSCLC = tested on: A549 NSCLC
ACHN renal = tested on: ACHN renal
CAKI-1 renal = tested on: CAKI-1 renal
CCRF-CEM leukemia = tested on: CCRF-CEM leukemia
COLO 205 colon = tested on: COLO 205 colon
DU-145 prostate = tested on: DU-145 prostate
EKVX NSCLC = tested on: EKVX NSCLC
HCC-2998 colon = tested on: HCC-2998 colon
HCT-116 colon = tested on: HCT-116 colon
HCT-15 colon = tested on: HCT-15 colon
HL-60(TB) leukemia = tested on: HL-60(TB) leukemia
HOP-62 NSCLC = tested on: HOP-62 NSCLC
HOP-92 NSCLC = tested on: HOP-92 NSCLC
HT29 colon = tested on: HT29 colon
IGROV1 ovarian = tested on: IGROV1 ovarian
K-562 leukemia = tested on: K-562 leukemia
KM12 colon = tested on: KM12 colon
LOX IMVI melanoma = tested on: LOX IMVI melanoma
M14 melanoma = tested on: M14 melanoma
MALME-3M melanoma = tested on: MALME-3M melanoma
MCF7 breast = tested on: MCF7 breast
MDA-MB-231 breast = tested on: MDA-MB-231 breast
MDA-MB-435 = tested on: MDA-MB-435
MDA-N = tested on: MDA-N
MOLT-4 leukemia = tested on: MOLT-4 leukemia
NCI-H226 lung = tested on: NCI-H226 lung
NCI-H23 lung = tested on: NCI-H23 lung
NCI-H460 lung = tested on: NCI-H460 lung
NCI-H522 lung = tested on: NCI-H522 lung
NCI/ADR-RES ovarian = tested on: NCI/ADR-RES ovarian
OVCAR-3 ovarian = tested on: OVCAR-3 ovarian
OVCAR-4 ovarian = tested on: OVCAR-4 ovarian
OVCAR-5 ovarian = tested on: OVCAR-5 ovarian
OVCAR-8 ovarian = tested on: OVCAR-8 ovarian
PC-3 prostate = tested on: PC-3 prostate
RXF 393 renal = tested on: RXF 393 renal
SF-268 CNS = tested on: SF-268 CNS
SF-295 CNS = tested on: SF-295 CNS
SK-MEL-2 melanoma = tested on: SK-MEL-2 melanoma
SK-MEL-28 melanoma = tested on: SK-MEL-28 melanoma
SK-OV-3 ovarian = tested on: SK-OV-3 ovarian
SN12C renal = tested on: SN12C renal
SNB-19 CNS = tested on: SNB-19 CNS
SNB-75 CNS = tested on: SNB-75 CNS
SW-620 colon = tested on: SW-620 colon
T-47D breast = tested on: T-47D breast
TK-10 renal = tested on: TK-10 renal
U251 CNS = tested on: U251 CNS
UACC-257 melanoma = tested on: UACC-257 melanoma
UACC-62 melanoma = tested on: UACC-62 melanoma
UO-31 renal = tested on: UO-31 renal
HS 578T breast = tested on: HS 578T breast
RPMI-8226 leukemia = tested on: RPMI-8226 leukemia
SF-539 CNS = tested on: SF-539 CNS
SK-MEL-5 melanoma = tested on: SK-MEL-5 melanoma
SR leukemia = tested on: SR leukemia
BT-549 breast = tested on: BT-549 breast

O=C(O)CSc1nnc(COc2ccc(Cl)cc2)n1-c1ccccc1
> 100000 nM: TGI (786-0 renal) | TGI (A498 renal) | TGI (A549 NSCLC) | TGI (ACHN renal) | TGI (CAKI-1 renal) | TGI (CCRF-CEM leukemia) | TGI (COLO 205 colon) | TGI (DU-145 prostate) | TGI (EKVX NSCLC) | TGI (HCC-2998 colon) | TGI (HCT-116 colon) | TGI (HCT-15 colon) | TGI (HL-60(TB) leukemia) | TGI (HOP-62 NSCLC) | TGI (HOP-92 NSCLC) | TGI (HT29 colon) | TGI (IGROV1 ovarian) | TGI (K-562 leukemia) | TGI (KM12 colon) | TGI (LOX IMVI melanoma) | TGI (M14 melanoma) | TGI (MALME-3M melanoma) | TGI (MCF7 breast) | TGI (MDA-MB-231 breast) | TGI (MDA-MB-435) | TGI (MDA-N) | TGI (MOLT-4 leukemia) | TGI (NCI-H226 lung) | TGI (NCI-H23 lung) | TGI (NCI-H460 lung) | TGI (NCI-H522 lung) | TGI (NCI/ADR-RES ovarian) | TGI (OVCAR-3 ovarian) | TGI (OVCAR-4 ovarian) | TGI (OVCAR-5 ovarian) | TGI (OVCAR-8 ovarian) | TGI (PC-3 prostate) | TGI (RXF 393 renal) | TGI (SF-268 CNS) | TGI (SF-295 CNS) | TGI (SK-MEL-2 melanoma) | TGI (SK-MEL-28 melanoma) | TGI (SK-OV-3 ovarian) | TGI (SN12C renal) | TGI (SNB-19 CNS) | TGI (SNB-75 CNS) | TGI (SW-620 colon) | TGI (T-47D breast) | TGI (TK-10 renal) | TGI (U251 CNS) | TGI (UACC-257 melanoma) | TGI (UACC-62 melanoma) | TGI (UO-31 renal)

COc1ccccc1N/C(=C\C(=O)C(=O)NC12CC3CC(CC(C3)C1)C2)c1ccccc1
> 10000 nM: TGI (786-0 renal) | TGI (A498 renal) | TGI (ACHN renal) | TGI (CAKI-1 renal) | TGI (CCRF-CEM leukemia) | TGI (COLO 205 colon) | TGI (DU-145 prostate) | TGI (EKVX NSCLC) | TGI (HCC-2998 colon) | TGI (HCT-15 colon) | TGI (HL-60(TB) leukemia) | TGI (HOP-62 NSCLC) | TGI (HS 578T breast) | TGI (HT29 colon) | TGI (IGROV1 ovarian) | TGI (K-562 leukemia) | TGI (KM12 colon) | TGI (LOX IMVI melanoma) | TGI (M14 melanoma) | TGI (MALME-3M melanoma) | TGI (MCF7 breast) | TGI (MDA-MB-231 breast) | TGI (MDA-MB-435) | TGI (MDA-N) | TGI (MOLT-4 leukemia) | TGI (NCI-H226 lung) | TGI (NCI-H23 lung) | TGI (NCI-H460 lung) | TGI (NCI-H522 lung) | TGI (NCI/ADR-RES ovarian) | TGI (OVCAR-3 ovarian) | TGI (OVCAR-4 ovarian) | TGI (OVCAR-5 ovarian) | TGI (OVCAR-8 ovarian) | TGI (PC-3 prostate) | TGI (RPMI-8226 leukemia) | TGI (RXF 393 renal) | TGI (SF-268 CNS) | TGI (SF-295 CNS) | TGI (SF-539 CNS) | TGI (SK-MEL-2 melanoma) | TGI (SK-MEL-28 melanoma) | TGI (SK-MEL-5 melanoma) | TGI (SK-OV-3 ovarian) | TGI (SN12C renal) | TGI (SNB-75 CNS) | TGI (SR leukemia) | TGI (SW-620 colon) | TGI (T-47D breast) | TGI (TK-10 renal) | TGI (U251 CNS) | TGI (UACC-257 melanoma) | TGI (UO-31 renal)

Nc1nc2cc3nc(N)c(N)nc3cc2nc1N
> 100000 nM: TGI (786-0 renal) | TGI (A498 renal) | TGI (A549 NSCLC) | TGI (ACHN renal) | TGI (BT-549 breast) | TGI (CAKI-1 renal) | TGI (CCRF-CEM leukemia) | TGI (COLO 205 colon) | TGI (DU-145 prostate) | TGI (EKVX NSCLC) | TGI (HCC-2998 colon) | TGI (HCT-116 colon) | TGI (HCT-15 colon) | TGI (HL-60(TB) leukemia) | TGI (HS 578T breast) | TGI (HT29 colon) | TGI (IGROV1 ovarian) | TGI (KM12 colon) | TGI (LOX IMVI melanoma) | TGI (M14 melanoma) | TGI (MALME-3M melanoma) | TGI (MCF7 breast) | TGI (MDA-MB-231 breast) | TGI (MDA-MB-435) | TGI (MDA-N) | TGI (MOLT-4 leukemia) | TGI (NCI-H226 lung) | TGI (NCI-H23 lung) | TGI (NCI-H460 lung) | TGI (NCI-H522 lung) | TGI (NCI/ADR-RES ovarian) | TGI (OVCAR-3 ovarian) | TGI (OVCAR-5 ovarian) | TGI (OVCAR-8 ovarian) | TGI (PC-3 prostate) | TGI (RPMI-8226 leukemia) | TGI (RXF 393 renal) | TGI (SF-268 CNS) | TGI (SF-295 CNS) | TGI (SF-539 CNS) | TGI (SK-MEL-2 melanoma) | TGI (SK-MEL-28 melanoma) | TGI (SK-MEL-5 melanoma) | TGI (SK-OV-3 ovarian) | TGI (SN12C renal) | TGI (SNB-19 CNS) | TGI (SNB-75 CNS) | TGI (SR leukemia) | TGI (SW-620 colon) | TGI (TK-10 renal) | TGI (U251 CNS) | TGI (UACC-257 melanoma) | TGI (UACC-62 melanoma) | TGI (UO-31 renal)

COc1cccc(-c2cc(=O)c3cc(N(C)C)ccc3[nH]2)c1
825 nM and 843 nM: TGI (SNB-19 CNS)
62.1 nM and 8.53 nM: TGI (HL-60(TB) leukemia)
> 100000 nM and 36700 nM: TGI (786-0 renal)
88.7 nM: TGI (K-562 leukemia)
35.1 nM and 22 nM and 12.8 nM: TGI (SF-539 CNS)
94.6 nM [middle of 4 runs]: TGI (OVCAR-8 ovarian)
188 nM and 23.3 nM: TGI (SR leukemia)
31.8 nM and 21 nM and 22.2 nM: TGI (NCI/ADR-RES ovarian)
10.3 nM and 3.61 nM: TGI (MDA-MB-435)
active: GI50 (786-0 renal) 36.8 nM and 9.6 nM | GI50 (ACHN renal) 89.2 nM and 11 nM | GI50 (CCRF-CEM leukemia) 13.5 nM and 5.24 nM | GI50 (COLO 205 colon) 28.3 nM and 12.5 nM | GI50 (DU-145 prostate) 34 nM and 7.3 nM | GI50 (HCC-2998 colon) 47.2 nM and 22.9 nM | GI50 (HCT-116 colon) 15.5 nM and 4.33 nM | GI50 (HL-60(TB) leukemia) 11.1 nM and 2.64 nM | GI50 (HS 578T breast) 22.1 nM and 4.61 nM | GI50 (IGROV1 ovarian) 89.2 nM and 42.3 nM and 17.4 nM | GI50 (K-562 leukemia) 9.37 nM and 4.04 nM | GI50 (KM12 colon) 33.4 nM and 15.9 nM | GI50 (LOX IMVI melanoma) 35.4 nM and 12 nM | GI50 (M14 melanoma) 23.4 nM and 6.82 nM | GI50 (MALME-3M melanoma) 9.87 nM and 4.03 nM | GI50 (MDA-MB-231 breast) 10.7 nM | GI50 (MDA-N) 1.54 nM | GI50 (MOLT-4 leukemia) 43.5 nM and 6.42 nM | GI50 (NCI-H460 lung) 34.2 nM and 16.9 nM | GI50 (NCI-H522 lung) 18.4 nM and 3.92 nM | GI50 (NCI/ADR-RES ovarian) 14.4 nM and 5.33 nM | GI50 (OVCAR-3 ovarian) 15.3 nM and 2.66 nM | GI50 (PC-3 prostate) 27.5 nM and 8.06 nM | GI50 (SF-295 CNS) 16.9 nM and 29.6 nM and 4.85 nM | GI50 (SF-539 CNS) 10.6 nM and 3.32 nM | GI50 (SK-MEL-2 melanoma) 35.9 nM and 7.35 nM | GI50 (SK-MEL-28 melanoma) 20.9 nM and 5.82 nM | GI50 (SK-MEL-5 melanoma) 12.5 nM and 3.56 nM | GI50 (SK-OV-3 ovarian) 25 nM and 3.59 nM | GI50 (SNB-75 CNS) 27.1 nM and 8.69 nM | GI50 (SR leukemia) 4.95 nM and 2.24 nM | GI50 (SW-620 colon) 17.3 nM and 3.82 nM | GI50 (U251 CNS) 18.2 nM and 5.94 nM | GI50 (UACC-62 melanoma) 16.3 nM and 3.63 nM | GI50 (UO-31 renal) 64.2 nM and 12.6 nM and 13.2 nM
> 100000 nM and 51900 nM: TGI (ACHN renal)
1060 nM and 119 nM and 766 nM: TGI (KM12 colon)
40.1 nM and 25.9 nM: TGI (MOLT-4 leukemia)
7.74 nM and 5.29 nM: TGI (MDA-N)
302 nM and 369 nM and 800 nM: TGI (DU-145 prostate)
> 100000 nM and 78100 nM: TGI (UO-31 renal)
87.5 nM and 31.7 nM: TGI (COLO 205 colon)
> 100000 nM: TGI (A549 NSCLC) | TGI (HOP-62 NSCLC) | TGI (IGROV1 ovarian) | TGI (M14 melanoma) | TGI (MALME-3M melanoma) | TGI (OVCAR-4 ovarian) | TGI (OVCAR-5 ovarian) | TGI (PC-3 prostate) | TGI (SK-MEL-28 melanoma) | TGI (SN12C renal) | TGI (SNB-75 CNS) | TGI (SW-620 colon) | TGI (UACC-257 melanoma) | TGI (UACC-62 melanoma)
65000 nM and 34200 nM: TGI (TK-10 renal)
44.5 nM and 20.5 nM: TGI (NCI-H522 lung)
